Values quoted from earlier work as cited in patent publication US20210009750A1, “3D PRINTING COMPOSITION FOR BIOMATERIALS” (TISSIUM SA, priority 2018, published 2021).

Tested on: mammalian cell types
Details: broad range of mammalian cell types and species

CC(C)(O)C(=O)c1ccc(OCCO)cc1 [Irgacure 2959, 2-hydroxy-1-[4-(hydroxyethoxy)phenyl]-2-methyl-1-propanone]
cytotoxicity (cell death): minimal cytotoxicity
